Results from PubChem BioAssay (NCI).
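Growth conditions: 96-well plates. Treatment: test compound, 48 hours, 5 concentrations. Analysis: linear interpolation between bracketing concentrations; unreached endpoints set to highest concentration. GI50 marks 50% less growth. TGI marks complete inhibition of growth.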 Where a SMILES comes first, the peptide text is derived from it. The star is where a group is joined. Boc = CC(C)(C)OC(=O)*

Columns and labels:
Test in all cases: DTP human tumour cell line panel, 48 h
[1] = tested on: HCT-15 colon
[2] = tested on: COLO 205 colon
[3] = tested on: T-47D breast
[4] = tested on: OVCAR-4 ovarian
[5] = tested on: MALME-3M melanoma
[6] = tested on: HL-60(TB) leukemia
[7] = tested on: DU-145 prostate
[8] = tested on: SF-268 CNS
[9] = tested on: SR leukemia
[10] = tested on: SK-MEL-5 melanoma

| SMILES | TGI [1] | TGI [2] | TGI [3] | TGI [4] | TGI [5] | TGI [6] | TGI [7] | TGI [8] | TGI [9] | TGI [10] | GI50 [1] | GI50 [2] | GI50 [3] | GI50 [4] | GI50 [5] | GI50 [6] | GI50 [7] | GI50 [8] | GI50 [10] |
| --- | --- | --- | --- | --- | --- | --- | --- | --- | --- | --- | --- | --- | --- | --- | --- | --- | --- | --- | --- |
| Oc1cccc2c(Br)ccnc12 | 24.2 µM | 27.3 µM | > 51.5 µM | 10.2 µM | 21.2 µM | 0.983 µM | 39.5 µM | 14.2 µM | 4.31 µM | 14.2 µM |  |  |  |  |  |  |  |  |  |
| Cc1c(OCc2cccc3ccccc23)ccc2c(=O)cc(SCCN3CCOCC3)oc12 | > 100 µM | > 100 µM | > 100 µM | > 100 µM |  | > 100 µM | > 100 µM | > 100 µM | > 100 µM | > 100 µM |  |  |  |  |  |  |  |  |  |
| CC(C)[C@H](C)/C=C/[C@@H](C)C1CC[C@H]2[C@@]34C=C[C@]5(C[C@@H](O)CC[C@]5(C)[C@H]3CC[C@]12C)OO4 (stereo partly specified) | > 100 µM | > 100 µM | > 100 µM | > 100 µM |  | 57.1 µM | 56 µM | > 100 µM |  | 62.2 µM |  |  |  |  |  |  |  |  |  |
| Cc1cn(C2CC(COCc3ccccc3)N(CCO[Si](C)(C)C(C)(C)C)O2)c(=O)[nH]c1=O (stereo unspecified) |  | 28.4 µM | 31.1 µM | 33.4 µM | 34.3 µM |  | 31 µM | 35.7 µM | 71.4 µM | 12.9 µM |  |  |  |  |  |  |  |  |  |
| CCC1=C(C[C@H]2NCCc3cc(OC)c(OC)cc32)C[C@H]2c3cc(OC)c(OC)cc3CCN2C1 | 1.02 µM |  |  | 0.0717 µM | 0.637 µM | 0.0765 µM |  | 0.407 µM | 55.1 µM | 0.0551 µM |  |  |  |  |  |  |  |  |  |
| COC(=O)C(Cc1c[nH]c2ccccc12)NC(=O)C(Cc1c[nH]c2ccccc12)NC(=O)C(Cc1c[nH]c2ccccc12)NC(=O)C(Cc1c[nH]c2ccccc12)NC(=O)C(Cc1c[nH]c2ccccc12)NC(=O)C(Cc1c[nH]c2ccccc12)NC(=O)C(Cc1c[nH]c2ccccc12)NC(=O)OC(C)(C)C (stereo unspecified) (Boc-WWWWWWW-OMe; configuration not given here) | > 100 µM |  | > 100 µM | > 100 µM | > 100 µM | > 100 µM | > 100 µM | > 100 µM | > 100 µM | > 100 µM |  |  |  |  |  |  |  |  |  |
| O=C1N2CCC[C@H]2CS1(=O)=O | 29.4 µM | 28.9 µM | 32.9 µM | 28.6 µM | 28.3 µM | 39.3 µM | 35.8 µM | 42.7 µM |  | 33.3 µM |  |  |  |  |  |  |  |  |  |
| O=[N+]([O-])c1ccc(N2N=C(c3c(O)ccc4ccccc34)CC2c2ccc(Cl)cc2)c([N+](=O)[O-])c1 (stereo unspecified) | > 100 µM | 29.5 µM | > 100 µM | > 100 µM | 63 µM |  | > 100 µM | > 100 µM | 31.4 µM | 39.1 µM |  |  |  |  |  |  |  |  |  |
| O=C(O)Cn1c2c(c3c1-c1ccccc1C3=O)C(=O)CCC2 | > 100 µM | > 100 µM | > 100 µM | > 100 µM | > 100 µM | > 100 µM | > 100 µM | > 100 µM |  | > 100 µM | > 100 µM | > 100 µM | > 100 µM | > 100 µM | > 100 µM | > 100 µM | > 100 µM | > 100 µM | > 100 µM |
| O=c1cc(N2CCOCC2)n2c(ccc3ccccc32)n1 | > 100 µM | > 100 µM | > 100 µM |  | > 100 µM | > 100 µM |  | > 100 µM | > 100 µM | > 100 µM |  |  |  |  |  |  |  |  |  |
| CC(=O)CC(=O)N1CCSC1=S | > 10 µM |  | > 10 µM |  | > 10 µM | > 10 µM | > 10 µM | > 10 µM | > 10 µM | > 10 µM |  |  |  |  |  |  |  |  |  |
| Cc1cc(S(=O)(=O)Nc2nc3cscc3c(=O)n2N)c(S)cc1Cl | > 100 µM | > 100 µM |  | > 100 µM | 90.4 µM | > 100 µM | > 100 µM | > 100 µM |  | > 100 µM |  |  |  |  |  |  |  |  |  |
| Cc1ccc(N2C(=O)C3CSCN3C2=O)cc1 (stereo unspecified) | > 100 µM | > 100 µM |  | > 100 µM | > 100 µM | > 100 µM |  | > 100 µM |  | > 100 µM |  |  |  |  | > 100 µM |  |  |  |  |
| CC(C)(C)OC(=O)C(C#N)C(=O)c1ccc(C(=O)O)[nH]1 (stereo unspecified) | > 100 µM | > 100 µM | > 100 µM | 52.9 µM | > 100 µM | 62.1 µM | > 100 µM | > 100 µM |  | > 100 µM |  |  |  |  |  |  |  |  |  |
| O=C1Nc2cccc(Cl)c2/C1=C\c1c(-c2ccccc2)nc2n1CCS2 | 83.1 µM | 39.5 µM | 48.9 µM |  | 46.3 µM | 41.3 µM | 44.9 µM | 66.9 µM | 53.2 µM | 51.6 µM |  |  |  |  |  |  |  |  |  |
| COc1ccc(OC)c2c(C)ccnc12 | > 100 µM | > 83.3 µM | > 100 µM | > 71 µM | > 74.3 µM |  | > 100 µM | > 97.2 µM |  | > 84.4 µM |  |  |  |  |  |  |  |  |  |
| c1ccc2c(Nc3ncco3)cccc2c1 | > 10 µM | > 10 µM | > 10 µM | > 10 µM | > 10 µM |  | > 10 µM | > 10 µM | > 10 µM | > 10 µM |  |  |  |  |  |  |  |  |  |
| CC(CCc1nc2ccccc2s1)(c1ccc(O)cc1)c1ccc(O)cc1 | 35.4 µM |  | 95.2 µM | 37 µM | 31 µM |  | 31.6 µM | 40.5 µM | 53.3 µM | 33.1 µM |  |  |  |  |  |  |  |  |  |
| S=C1C(=Nc2ccccc2)N(c2ccccc2)/C(=N\c2cccc[n+]2Cc2ccccc2)N1c1ccccc1 | 45.7 µM | 34.9 µM | 61.7 µM |  | 28.2 µM |  | > 100 µM | 48.4 µM | 79.7 µM | 26.7 µM |  |  |  |  |  |  |  |  |  |
| CCOC(=O)C1CCC(=O)N1C(=O)c1cccc(Cl)c1 (stereo unspecified) | > 100 µM |  | > 100 µM |  | > 100 µM | > 100 µM | > 100 µM | > 100 µM | > 100 µM | > 100 µM |  |  |  |  |  |  |  |  |  |
| Oc1ccc(Cl)cc1-c1cc(-c2ccccc2)nc(=S)[nH]1 | > 100 µM | > 100 µM | > 100 µM | > 100 µM | > 100 µM | > 100 µM | > 100 µM | 77.7 µM |  | > 100 µM |  |  |  |  |  |  |  |  |  |
| CCOC(=O)c1cc2c3c(c(C(C)=O)c(OC)c2[nH]1)N(C(=O)CC)CC3 | 34.2 µM | 41.8 µM | 45.4 µM | 40.9 µM | 35.8 µM | 46.7 µM | 29.6 µM | 36.6 µM |  | 24.5 µM |  |  |  |  |  |  |  |  |  |
